Patent publication US20200178527A1, “Method for Promoting Growth and Preservation Quality of Agaricus Bisporus” (Nanjing University of Finance & Economics, priority 2018, published 2020)

What was measured:
Agaricus bisporus [1] = test: Growth of Agaricus bisporus after spraying MeJA solution at mushroom bud stage; type: in vivo; conditions: for Diameter of Pileus / Diameter of Stipe / Thickness of Pileus / Weight: 30 mL/m^2 spray
Description: Experiment of promoting the growth and preservation quality of Agaricus bisporus (1) An ethanol-water solvent with an ethanol concentration (by volume fraction) of 2% was prepared, and then the methyl jasmonate (MeJA) was dissolved in the ethanol-water solvent to prepare MeJA solutions at concentrations respectively of 10, 50, 100, and 200 μmol/L.
(2) The aforementioned MeJA solutions were each used as an inducer and poured into an automatic spraying device, and were each uniformly sprayed onto the surface of Agaricus bisporus when it was grown to the mushroom bud stage, where the spraying dose of 30 mL/m^2 was used as the treatment group. At the same time, the treatments with water and a 2% ethanol solution were as a blank group and a control group, respectively. The subsequent culturing conditions were 17° C. and a humidity of 90%.
(3) Photographing and sampling are performed every 24 h during the treatment. After sampling, the weight (m) of a single mushroom was weighed and recorded, and the diameter of pileus (a), the diameter of stipe (b) and the thickness of pileus (c) were measured with a microcalliper and recorded to calculate the average values, and the results were shown in Table 1.

Agaricus bisporus [2] = test: Post-harvest storage (preservation quality) of Agaricus bisporus at 4° C., relative humidity 90-95%; type: in vivo
Description: Experiment of promoting the growth and preservation quality of Agaricus bisporus (1) An ethanol-water solvent with an ethanol concentration (by volume fraction) of 2% was prepared, and then the methyl jasmonate (MeJA) was dissolved in the ethanol-water solvent to prepare MeJA solutions at concentrations respectively of 10, 50, 100, and 200 μmol/L. (2) The aforementioned MeJA solutions were each used as an inducer and poured into an automatic spraying device, and were each uniformly sprayed onto the surface of Agaricus bisporus when it was grown to the mushroom bud stage, where the spraying dose of 30 mL/m^2 was used as the treatment group. At the same time, the treatments with water and a 2% ethanol solution were as a blank group and a control group, respectively. The subsequent culturing conditions were 17° C. and a humidity of 90%. The Agaricus bisporus was stored under conditions of 4° C. and a relative humidity of 90-95% after harvested, so as to observe its appearance and quality, and the results were as shown in FIG. 2.

[3] = 10 μM MeJA, day 1 after treatment
[4] = 10 μM MeJA, day 2 after treatment
[5] = 50 μM MeJA, day 1 after treatment
[6] = 50 μM MeJA, day 2 after treatment
[7] = 100 μM MeJA, day 1 after treatment
[8] = 100 μM MeJA, day 2 after treatment
[9] = 200 μM MeJA, day 1 after treatment
[10] = 200 μM MeJA, day 2 after treatment
[11] = methyl jasmonate solution of 10-200 μmol/l sprayed at mushroom bud stage

Question: What does the source list for `CC/C=C\CC1C(=O)CCC1CC(=O)OC` (stereo not drawn) [MeJA, methyl jasmonate]?
Answer: Diameter of Pileus (Agaricus bisporus [1]; [3]): 20.21 ± 0.67 mm; Diameter of Stipe (Agaricus bisporus [1]; [3]): 12.60 ± 0.91 mm; Thickness of Pileus (Agaricus bisporus [1]; [3]): 12.07 ± 0.48 mm; Weight (Agaricus bisporus [1]; [3]): 3.83 ± 0.01 g; Diameter of Pileus (Agaricus bisporus [1]; [4]): 37.04 ± 0.47 mm; Diameter of Stipe (Agaricus bisporus [1]; [4]): 18.17 ± 0.60 mm; Thickness of Pileus (Agaricus bisporus [1]; [4]): 21.49 ± 0.50 mm; Weight (Agaricus bisporus [1]; [4]): 16.27 ± 0.27 g; Diameter of Pileus (Agaricus bisporus [1]; [5]): 24.29 ± 0.75 mm; Diameter of Stipe (Agaricus bisporus [1]; [5]): 13.91 ± 0.66 mm; Thickness of Pileus (Agaricus bisporus [1]; [5]): 14.80 ± 0.49 mm; Weight (Agaricus bisporus [1]; [5]): 6.81 ± 0.09 g; Diameter of Pileus (Agaricus bisporus [1]; [6]): 39.01 ± 0.67 mm; Diameter of Stipe (Agaricus bisporus [1]; [6]): 18.76 ± 0.38 mm; Thickness of Pileus (Agaricus bisporus [1]; [6]): 22.29 ± 0.21 mm; Weight (Agaricus bisporus [1]; [6]): 20.34 ± 0.20 g; Diameter of Pileus (Agaricus bisporus [1]; [7]): 20.52 ± 0.33 mm; Diameter of Stipe (Agaricus bisporus [1]; [7]): 14.14 ± 0.35 mm; Thickness of Pileus (Agaricus bisporus [1]; [7]): 12.28 ± 0.32 mm; Weight (Agaricus bisporus [1]; [7]): 3.69 ± 0.06 g; Diameter of Pileus (Agaricus bisporus [1]; [8]): 31.97 ± 0.78 mm; Diameter of Stipe (Agaricus bisporus [1]; [8]): 16.30 ± 0.82 mm; Thickness of Pileus (Agaricus bisporus [1]; [8]): 18.73 ± 0.82 mm; Weight (Agaricus bisporus [1]; [8]): 11.18 ± 0.10 g; Diameter of Pileus (Agaricus bisporus [1]; [9]): 20.79 ± 0.57 mm; Diameter of Stipe (Agaricus bisporus [1]; [9]): 13.56 ± 0.83 mm; Thickness of Pileus (Agaricus bisporus [1]; [9]): 12.70 ± 0.19 mm; Weight (Agaricus bisporus [1]; [9]): 3.48 ± 0.14 g; Diameter of Pileus (Agaricus bisporus [1]; [10]): 30.71 ± 0.69 mm; Diameter of Stipe (Agaricus bisporus [1]; [10]): 17.94 ± 0.39 mm; Thickness of Pileus (Agaricus bisporus [1]; [10]): 17.5 ± 0.48 mm; Weight (Agaricus bisporus [1]; [10]): 10.10 ± 0.14 g; effect on growth of Agaricus bisporus (Agaricus bisporus [1]; 10-100 μmol/L, compared with blank group and ethanol group (FIG. 1, Table 1)): significant effect of promoting the growth; improvement of yield (Agaricus bisporus [1]; [11]): 20%-25%; preserving effect on Agaricus bisporus (Agaricus bisporus [2]; 10-200 μmol/L, compared with blank group and ethanol group, storage at 4° C., RH 90-95% (FIG. 2)): significant preserving effect; extension of post-harvest storage time (Agaricus bisporus [2]; [11]): 2 to 4 days
